The record followed here is ChEMBL document CHEMBL3414538, “Synthesis, biological evaluation and molecular modeling studies of the PPARβ/δ antagonist CC618” (Eur J Med Chem, 2015).

The target in test [1] is T1, Peroxisome proliferator-activated receptor delta (Homo sapiens, UniProt Q03181).
T1 sequence (Q03181 whole entry): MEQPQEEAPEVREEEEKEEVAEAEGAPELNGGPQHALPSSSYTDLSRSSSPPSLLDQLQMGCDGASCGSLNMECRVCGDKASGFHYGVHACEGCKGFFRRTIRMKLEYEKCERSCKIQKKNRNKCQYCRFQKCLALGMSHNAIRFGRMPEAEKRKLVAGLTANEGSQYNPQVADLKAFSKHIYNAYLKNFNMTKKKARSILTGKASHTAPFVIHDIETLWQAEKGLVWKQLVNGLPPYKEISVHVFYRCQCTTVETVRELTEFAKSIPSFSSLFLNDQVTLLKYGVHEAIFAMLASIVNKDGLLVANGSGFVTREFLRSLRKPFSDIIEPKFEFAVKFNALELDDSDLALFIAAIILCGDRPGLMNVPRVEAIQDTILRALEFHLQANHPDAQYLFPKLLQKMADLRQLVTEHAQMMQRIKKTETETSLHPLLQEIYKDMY
Kind of test: Antagonist activity against pSG5-Gal4-tagged human PPAR-beta/delta ligand binding domain expressed in COS1 cells assessed as inhibition of GW501516-induced receptor activation incubated for 19 hrs by pGL3-5XUAS-SV40 luciferase reporter gene assay. It is filed as cell-based, COS-1.

Test [2] has as its target T1, Peroxisome proliferator-activated receptor delta. Kind of test: Agonist activity at pSG5-Gal4-tagged human PPAR-beta/delta ligand binding domain expressed in COS1 cells assessed as receptor activation incubated for 19 hrs by pGL3-5XUAS-SV40 luciferase reporter gene assay. It is filed as cell-based. The following applies: cos-1.
The target in test [3] is T2, Peroxisome proliferator-activated receptor alpha (Homo sapiens) (UniProt Q07869).
T2 sequence (whole entry): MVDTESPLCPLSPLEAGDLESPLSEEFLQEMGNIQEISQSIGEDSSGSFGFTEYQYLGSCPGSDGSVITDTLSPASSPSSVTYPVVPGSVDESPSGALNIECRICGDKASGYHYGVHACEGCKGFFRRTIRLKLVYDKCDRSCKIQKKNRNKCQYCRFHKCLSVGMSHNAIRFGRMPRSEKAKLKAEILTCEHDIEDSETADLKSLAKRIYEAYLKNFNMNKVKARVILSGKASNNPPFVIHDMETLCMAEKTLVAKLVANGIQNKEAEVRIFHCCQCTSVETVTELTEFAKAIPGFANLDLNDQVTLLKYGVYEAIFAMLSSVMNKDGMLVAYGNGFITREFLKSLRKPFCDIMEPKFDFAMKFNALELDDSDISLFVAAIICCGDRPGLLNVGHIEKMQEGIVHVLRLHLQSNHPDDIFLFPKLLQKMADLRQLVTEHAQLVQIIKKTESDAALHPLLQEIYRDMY
The test can be described thus: Antagonist activity against pSG5-Gal4-tagged human PPAR-alpha ligand binding domain expressed in COS1 cells assessed as inhibition of bezafibrate-induced receptor activation at 1 nM to 100000 nM incubated for 19 hrs by pGL3-5XUAS-SV40 luciferase reporter gene assay. The following applies: COS-1. It is filed as cell-based. Background: In a reporter assay the amount or activity of a reporter protein is the signal.

Test [4] has as its target T3, Peroxisome proliferator-activated receptor gamma (Homo sapiens) (UniProt P37231).
T3 sequence (whole entry): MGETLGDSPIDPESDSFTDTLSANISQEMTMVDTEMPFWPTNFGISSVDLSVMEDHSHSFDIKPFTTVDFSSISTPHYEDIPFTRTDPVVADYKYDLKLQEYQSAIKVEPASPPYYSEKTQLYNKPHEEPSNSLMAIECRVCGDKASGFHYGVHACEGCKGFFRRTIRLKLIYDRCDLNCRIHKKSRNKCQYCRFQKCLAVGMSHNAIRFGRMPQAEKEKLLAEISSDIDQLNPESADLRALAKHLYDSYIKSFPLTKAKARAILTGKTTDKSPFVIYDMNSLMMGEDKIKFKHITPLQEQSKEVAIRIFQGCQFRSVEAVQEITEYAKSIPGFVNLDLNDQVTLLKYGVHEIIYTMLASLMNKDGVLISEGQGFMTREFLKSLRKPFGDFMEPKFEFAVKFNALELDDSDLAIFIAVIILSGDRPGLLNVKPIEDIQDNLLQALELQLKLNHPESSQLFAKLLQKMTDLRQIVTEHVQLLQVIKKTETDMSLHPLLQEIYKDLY
The test can be described thus: Antagonist activity against pSG5-Gal4-tagged human PPAR-gamma ligand binding domain expressed in COS1 cells assessed as inhibition of rosiglitazone-induced receptor activation at 20 nM to 20000 nM incubated for 19 hrs by pGL3-5XUAS-SV40 luciferase reporter gene assay. The following applies: COS-1. It is filed as cell-based.

Structures are written as SMILES. Active and inactive are the calls of the source. The calls are words filed in the database; no cut-off is given here.

Broadly, the IC50 is the point on the concentration scale where inhibition reaches its midpoint.

Consider `Cc1nc(-c2ccc(C(F)(F)F)cc2)sc1C(=O)NCCS(=O)(=O)c1ccccn1`, for which the IC50 result in test [1] (cos-1) is given as “Not Active”.
Turning to `Cc1nc(-c2ccc(C(F)(F)F)cc2)sc1C(=O)NCCS(=O)(=O)c1ccc(C(F)(F)F)cn1`, the IC50 in test [1] (read-out: IC50) stood at 10 µM. The EC50 result in test [2] is “Not Active”. Further, the inhibition result in test [3] and in test [4] was “inactive” each time.
Turning to `O=C(NCCS(=O)(=O)c1ccc(C(F)(F)F)cn1)c1ccc(Cl)cc1`, the IC50 in test [1] (read-out: IC50) was 5 µM. Besides, the EC50 result in test [2] is on record as “Not Active”.
